Test results as given in patent US20260108547A1, “LEVERAGING L-FUCOSE-MEDIATED SIGNALING TO INDUCE MONOCYTE-DERIVED DENDRITIC CELL POLARIZATION” (H. LEE MOFFITT CANCER CENTER AND RESEARCH INSTITUTE, INC., priority 2022, published 2026).

Key:
[1] = tested on: HLA-DRB1; test: Flow cytometric assessment of cell surface fucosylation and HLA-DRB1 in melanoma cells; assay type: cell-based, human; settings: 250 μM, 72 h; flow cytometry
Protocol: Indicated cells were treated for 72 h with DMSO, 250 μM fucosyltransferase inhibitor (FUTi) (Millipore Sigma (St. Louis, MO)), or 250 μM of L-fucose (Biosynth (Oak Terrace, IL)). After 72 h, cells were stained with 0.1 μM PKH26 (Millipore Sigma (St. Louis, MO)) prior to fixation in 4% formaldehyde solution. The cells were stained with anti-HLA-DRB1 and fluorescein AAL, or anti-human or anti-mouse PD-L1 overnight. The following day the cells were washed 3 times prior to adding AlexaFluor 594 donkey anti-rabbit. Cells were washed 3 times and then subject to flow cytometric analyses using a FACSCalibur (BD Biosciences (San Jose, CA)). Samples were analyzed using FlowJo analysis software (BD Biosciences (San Jose, CA)). Median values of DRB1 and AAL were normalized to PKH26 values and statistical analysis was performed using GraphPad Prism.

[2] = Mouse models of tumor growth and metastasis, dietary L-fucose supplementation; assay type: in vivo
[3] = tested on: human PBMC-derived CD4+T cells; test: Phosphoproteomic and fucosylated proteomic analyses of CD3/CD28-activated CD4+T cells; assay type: cell-based; settings: 250 μM L-fucose
Protocol: CD4^+T cells cultured and treated as indicated in the main text were harvested and lysed in standard RIPA buffer+protease and phosphatase inhibitors. Protein concentration was estimated by BCA assay (Bio-Rad) and 1 mg lysates were subjected to trypsin digestion. Briefly, lysates were reduced with 4.5 mM dithiothreitol (DTT) for 30 min at 60° C., alkylated with 10 mM iodoacetamide (IAA) at room temperature in the dark for 20 minutes, and digested overnight at 37° C. with 1:20 enzyme-to-protein ratio of trypsin (Worthington). The resulting peptide solution was de-salted using reversed-phase Sep-Pak C18 cartridge (Waters) and lyophilized for 48 hours.
The lyophilized peptides were enriched for global phosphopeptides (pSTY) using IMAC Fe-NTA magnetic beads (Cell Signaling Technology, #20432). Enrichment were carried out on a KingFisher™ Flex Purification System (Thermo Fisher, #24074441). […]
On-bead digestion was performed with trypsin and tryptic peptides were then analyzed using a nanoflow ultra-high-performance liquid chromatograph (RSLC, Dionex, Sunnyvale, CA) coupled to an electrospray orbitrap mass spectrometer (Q-Exactive Plus, Thermo, San Jose, CA) for tandem mass spectrometry peptide sequencing. […] MaxQuant software (version 1.6.2.10) was used to identify and quantify the proteins for the DDA runs. […]

[4] = tested on: CD209; test: DC broad panel analysis and signaling array on phosphorylated proteins; assay type: cell-based
Text: To better understand the phenotype of DC subsets after L-fucose treatment, we preformed broad panel analysis to highlight unique subsets of DCs, including markers of activation, cross presentation and known signaling mechanisms. […] To determine if this increased expression was related to any other signaling changes we performed a signaling array on key phosphorylated proteins on activated DCs after L-fucose treatment. […] From this, we concluded that L-fucose increases expression of CD209 and modulates downstream signaling paths

With `C[C@H](O)[C@@H](O)[C@@H](O)[C@H](O)C=O` [L-fucose] the “cell surface HLA-DRB1” value [1] was “increased”, the cell surface fucosylation [1] was “increased” and the “blocks tumor growth and metastasis” value [2] was > 50%. The “Protein Kinase A (PKA) and actin signaling in CD4+T cells” value [3] was “significantly altering”, the CD209 expression ([4]; DC subsets after L-fucose treatment) was “increase” and the “AKT and PARP (signaling array on phosphorylated proteins)” value ([4]; activated DCs) was “significant decreases”.
